Molecules are shown by their SMILES.

One test relates to NCI-60 cell panel. The experiment in a line: NCI-60 cell panel, Sulforhodamine B growth inhibition. It is filed as cell-based. As for the experimental part:
(§1) Compounds 25 and 9 were evaluated for effects on the viability of the cell lines in the NCI-60 cell panel. […] Data is reported as growth inhibition GI50, rather than IC50, to reflect the change in cell counts relative to the starting number of cells.

In the next test the test system is HeLa cells. The experiment in a line: HeLa cell viability, MTT assay. It is filed as cell-based. The following applies: Homo sapiens, 50% reduction in percent of viable HeLa cells, read-out: IC50 against HeLa Cells. As for the experimental part: Table 1 sets forth ROS-Activated compounds of the present invention, together with their IC50 values corresponding to a 50% reduction in the percent of viable HeLa cells in vitro as measured via MTT assay.
All synthesized compounds were purified to greater than 98% purity prior to cell testing. HeLa cell viability assays were performed using an MTT assay.
The general structure of the ROS-activated compounds disclosed herein was probed to determine how positions in the structure alter potency in aqueous media. Compounds were screened against HeLa cells to determine IC50 values. Cell viability was monitored by an MTT dye that forms a purple formazan product in viable cells that are undergoing metabolism. […] Errors reported are between two separate experiments; independent curve-fitting had r greater than 0.95).

The test system of a further test is RPMI-8226. The experiment in a line: NCI-60 Sulforhodamine B growth inhibition, RPMI-8226. It is filed as cell-based. The following applies: Homo sapiens; RPMI-8226, plasmacytoma and myeloma cell line. As for the experimental part: as §1
(§2) Growth inhibition pattern induced by 25 and 9 based on the type of cancer was also analyzed. […] The majority of leukemia and renal cancer cell lines were above the median, indicating enhanced sensitivity to ROS-activating compounds. The current results further substantiate renal carcinoma as a potential target.

For a further test, the system named is MA9.3 AML cells. The experiment in a line: AML cytotoxicity, MTT assay on MA9.3 AML cell line. It is filed as cell-based, human. The following applies: Homo sapiens, read-out: IC50 against MA9.3 AML cells. From the text: (§3) To assess the anti-cancer activity against AML, transformed cells were compared to closely related, non-transformed counterparts. In the case of AML, the generally accepted non-transformed cell of origin is the human CD34+ blood stem/progenitor cell. Assessing potency against normal blood stem cells is important since, without selective cytotoxicity, an agent will yield reduced efficacy and therapeutic potential. […] Therefore, a comparison of current agents and the ROS-activated compounds disclosed herein was carried out. (FIG. 3). Cytotoxicity was measured via MTT assay on CD34+ blood stem/progenitor cells (grey lines) and on the MA9.3 AML cell line (black lines), which was derived from the transformation of human CD34+ cells by introduction of the leukemia oncogene MLL-AF9.

Test [1] deals with human CD34+ blood stem/progenitor cells. The experiment in a line: Cytotoxicity, MTT assay on CD34+ blood stem/progenitor cells. It is filed as cell-based. As to conditions: Homo sapiens, normal blood stem cells, read-out: IC50 against CD34+ blood stem/progenitor cells.
Description: as §3

A further test concerns MOLT-4. The experiment in a line: NCI-60 Sulforhodamine B growth inhibition, MOLT-4. It is filed as cell-based. As to conditions: Homo sapiens; MOLT-4, ALL model line. As for the experimental part: as §1, §2
The subject of a further test is renal cancer cells. The experiment in a line: Sulforhodamine B total protein content assay, renal cancer cell lines (NCI). It is filed as cell-based. The following applies: Homo sapiens; median over seven renal cancer cell lines. As for the experimental part:
(§4) The sensitivity of renal cancer cells to treatment with compound 25 was investigated. Compound 25 was evaluated for effects on viability using a sulforhodamine B total protein content assay at the NCI Developmental Therapeutics Program. The method uses total protein content and was developed by Monks et al., Feasibility of a high-flux anticancer drug screen using a diverse panel of cultured human tumor cell lines, J. Natl. Cancer Inst. 83:757-66 (1991). Briefly, cells are treated with compound 25 and then fixed to the plate surface. The number of cells is proportional to the relative amount of protein as measured by sulforhodamine B. Seven renal cancer cell lines were examined: 786-0, A498, ACHN, CAKI-1, RXF 393, SN12C, and UO-31. Data at the NCI was then fit to sigmoid and the IC50 and fitting error determined

A further test has as its system ACHN. The test is described as follows: Sulforhodamine B total protein content assay, ACHN. It is filed as cell-based. The following applies: Homo sapiens; ACHN renal cancer cells. As for the experimental part:
as §4

A further test has as its system SR-91. The experiment in a line: NCI-60 Sulforhodamine B growth inhibition, SR-91. It is filed as cell-based. The following applies: SR-91, acute lymphoblastic leukemia model. As for the experimental part: as §1, §2
The next test concerns CAKI-1. The test is described as follows: Sulforhodamine B total protein content assay, CAKI-1. It is filed as cell-based. As to conditions: Homo sapiens; CAKI-1 renal cancer cells. As for the experimental part:
as §4

Another test concerns SN12C. The experiment in a line: Sulforhodamine B total protein content assay, SN12C. It is filed as cell-based. The following applies: Homo sapiens; SN12C renal cancer cells. On the procedure: as §4

As for `Oc1ccc(OCCN(CCOc2ccc(O)cc2)c2ccccc2)cc1` [Compound 25, 4,4′-(2,2′-(phenylazanediyl)bis(ethane-2,1-diyl)bis(oxy))diphenol], the “range of GI50 values” in the test on NCI-60 cell panel (distribution of GI50 over NCI-60 panel) is 55 fold. For the same molecule, the 50% growth inhibitory concentration (GI50) with NCI-60 cell panel (median over NCI-60 panel, Sulforhodamine B) amounted to 3900 nM; with RPMI-8226, 3800 nM; with MOLT-4, 1300 nM; in the test with SR-91, 470 nM. The IC50 in the test with HeLa cells is 11000 nM; in the test on MA9.3 AML cells, 3000 ± 200 nM; in [1] it was 16000 ± 1000 nM; in the test with renal cancer cells, 1800 nM; in the test on ACHN, 360 ± 90 nM; in the test with CAKI-1, 370 ± 40 nM. The molecule also came in with an IC50 in the test with SN12C of 21000 ± 1200 nM.

(Values after patent publication US9394233B2, “ROS-activated compounds as selective anti-cancer therapeutics” (University of Cincinnati, priority 2012, dated 2016).)
